Starred links: 1 amine or outer side, 2 acyl side, 3 side chain; linkers in the order of their positions; H or OH if unused. Positions of bridges follow the written chain, without caps; N, C: chain ends. Non-standard residues stand in square brackets, D forms with d. Residues, ends and D or L forms follow the SMILES beside them. ξ: configuration not given here. *: point of attachment. NMeF = CN[C@@H](Cc1ccccc1)C(=O)O; NMeI = CC[C@H](C)[C@H](NC)C(=O)O; NMeβAla = CN(CCC(=O)[*:2])[*:1]; NMeL = CN[C@@H](CC(C)C)C(=O)O; NMeV = CN[C@H](C(=O)O)C(C)C; NMeA = CN[C@@H](C)C(=O)O; Piperidide = C1CCN(*)CC1; dNMeA = CN[C@H](C)C(=O)O; ξD = NC(CC(=O)O)C(=O)O; ξT = CC(O)C(N)C(=O)O; Sar = CNCC(=O)O; tBu = CC(C)(C)*
Key:
[1] = PAMPA (parallel artificial membrane permeability assay); assay type: in vitro ADME; settings: PAMPA, pH 6.5
Procedure, shortened: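 Artificial membrane was 10% (w/v) egg lecithin plus 0.5% (w/v) cholesterol in dodecane on a PVDF filter. A 10 mM DMSO stock was added at 0.5% (v/v) to donor buffer (50 mM MOPSO, pH 6.5, 5.0% glycocholic acid). After 18 h at 37 °C, LC/MS or LC/UV gave donor and acceptor levels for Pe.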

[2] = Metabolic stability in human hepatic microsome; assay type: in vitro ADME; settings: human, microsomes, pH 7.4, CL NADPH(+)

SMILES | Papp at 18 hours, 50 µM [1] [×10⁻⁶ cm/s] | microsomal CLint at 1 uM [2] [µL/min/mg]
CC[C@H](C)[C@H]1C(=O)N[C@@H](C)C(=O)N(C)[C@@H](Cc2ccccc2)C(=O)N[C@@H]([C@@H](C)O)C(=O)N(C)CC(=O)N(C)[C@@H](Cc2ccccc2)C(=O)N(C)[C@@H](CC(C)C)C(=O)N[C@H](C(=O)N2CCCCC2)CC(=O)N(C)CCC(=O)N[C@@H](CC(C)C)C(=O)N(C)[C@@H](CC(C)C)C(=O)N1C [DP-48] ([NMeβAla]L[NMeL][NMeI]A[NMeF]T[Sar][NMeF][NMeL]D-Piperidide; lactam N-11) | 33 | 32
CC[C@H](C)[C@H]1C(=O)N(C)[C@@H](CC(C)C)C(=O)N[C@H](C(=O)N2CCCCC2)CC(=O)N(C)[C@H](C)C(=O)N(C)[C@@H](CC(C)C)C(=O)N[C@@H](CC(C)C)C(=O)N(C)[C@@H](Cc2ccccc2)C(=O)N[C@@H](COC(C)(C)C)C(=O)N(C)[C@@H](Cc2ccccc2)C(=O)N[C@@H]([C@@H](C)O)C(=O)N(C)[C@@H](C)C(=O)N1C [DP-49] ([dNMeA][NMeL]L[NMeF]S(tBu)[NMeF]T[NMeA][NMeI][NMeL]D-Piperidide; lactam N-11) | 18 | 51
CC(C)C[C@H]1C(=O)N(C)[C@@H](CC(C)C)C(=O)NC(C(C)O)C(=O)N(C)[C@@H](Cc2ccccc2)C(=O)NCC(=O)N(C)[C@@H](C(C)C)C(=O)N[C@@H](Cc2ccccc2)C(=O)NC(C(=O)N2CCCCC2)CC(=O)N(C)CCC(=O)N[C@@H](COC(C)(C)C)C(=O)N1C (stereo partly drawn) [DP-50] ([NMeβAla]S(tBu)[NMeL][NMeL][ξT][NMeF]G[NMeV]F[ξD]-Piperidide; lactam N-10) | 35 | 80
CC[C@H](C)[C@@H]1NC(=O)[C@H](C)N(C)C(=O)[C@@H](C)N(C)C(=O)C[C@@H](C(=O)N2CCCCC2)NC(=O)[C@H](CC(C)C)N(C)C(=O)[C@H](C)N(C)C(=O)[C@H](Cc2ccccc2)N(C)C(=O)[C@H]([C@@H](C)O)NC(=O)[C@H](Cc2ccccc2)N(C)C(=O)[C@H](CC(C)C)N(C)C1=O [DP-51] ([dNMeA][NMeA]I[NMeL][NMeF]T[NMeF][NMeA][NMeL]D-Piperidide; lactam N-10) | 34 | 96
CC(C)C[C@H]1C(=O)NCC(=O)N[C@H](C(=O)N2CCCCC2)CC(=O)N[C@H](C)C(=O)N[C@@H]([C@@H](C)O)C(=O)N(C)[C@@H](C)C(=O)N(C)[C@@H](Cc2ccccc2)C(=O)N[C@@H](COC(C)(C)C)C(=O)N(C)[C@@H](Cc2ccccc2)C(=O)N1C [DP-52] ([dA]T[NMeA][NMeF]S(tBu)[NMeF][NMeL]GD-Piperidide; lactam N-9) | 23 | 136
CC[C@H](C)[C@H]1C(=O)N[C@H](C(=O)N2CCCCC2)CC(=O)N[C@H](C)C(=O)N[C@@H]([C@@H](C)O)C(=O)N(C)[C@@H](Cc2ccccc2)C(=O)N[C@@H](CC(C)C)C(=O)N(C)[C@@H](C)C(=O)N[C@@H](C(C)C)C(=O)N[C@@H](Cc2ccccc2)C(=O)N(C)[C@@H](CC(C)C)C(=O)N[C@@H](CC(C)C)C(=O)NCC(=O)N1C [DP-53] ([dA]T[NMeF]L[NMeA]VF[NMeL]LG[NMeI]D-Piperidide; lactam N-12) | 30 | 60
CC[C@H](C)[C@H]1C(=O)N(C)[C@@H](Cc2ccccc2)C(=O)NCC(=O)N[C@@H]([C@@H](C)O)C(=O)N[C@@H](Cc2ccccc2)C(=O)N(C)[C@@H](CC(C)C)C(=O)N2CCC[C@H]2C(=O)N[C@H](C(=O)N2CCCCC2)CC(=O)N[C@H](C)C(=O)N[C@@H](CC(C)C)C(=O)N(C)[C@@H](C)C(=O)N[C@@H](CC(C)C)C(=O)N1C [DP-54] ([dA]L[NMeA]L[NMeI][NMeF]GTF[NMeL]PD-Piperidide; lactam N-12) | 15 | 13
CC[C@H](C)[C@H]1C(=O)N[C@@H](C)C(=O)N[C@H](C(=O)N2CCCCC2)CC(=O)N[C@H](C(C)C)C(=O)N[C@@H](Cc2ccccc2)C(=O)N(C)CC(=O)N[C@@H](CC(C)C)C(=O)N[C@@H](Cc2ccccc2)C(=O)N2CCC[C@H]2C(=O)N[C@@H]([C@@H](C)O)C(=O)N[C@@H](COC(C)(C)C)C(=O)N(C)[C@@H](CC(C)C)C(=O)N1C [DP-55] ([dV]F[Sar]LFPTS(tBu)[NMeL][NMeI]AD-Piperidide; lactam N-12) | 21 | 79
CC[C@H](C)[C@H]1C(=O)N[C@H](C(=O)N2CCCCC2)CC(=O)N[C@H](C(C)C)C(=O)N[C@@H]([C@@H](C)O)C(=O)N(C)CC(=O)N[C@@H](CC(C)C)C(=O)N2CCC[C@H]2C(=O)N(C)[C@@H](C(C)C)C(=O)N[C@@H](Cc2ccccc2)C(=O)N(C)[C@@H](Cc2ccccc2)C(=O)N(C)[C@@H](CC(C)C)C(=O)N[C@@H](C)C(=O)N1C [DP-56] ([dV]T[Sar]LP[NMeV]F[NMeF][NMeL]A[NMeI]D-Piperidide; lactam N-12) | 30 | 43

Reference: patent publication US9409952B2, “Peptide-compound cyclization method” (Chugai Seiyaku Kabushiki Kaisha, priority 2011, dated 2016)
